From patent US20240091241A1, “USE OF CANNABIDIOL PREPARATIONS IN THE TREATMENT OF TEMPORAL LOBE EPILEPSY” (GW Research Limited, priority 2019, published 2024)

What was measured:
[1] = system: rat model of temporal lobe epilepsy, Reduced Intensity Status Epilepticus (RISE); experiment: Post-Seizure Behavioural Battery (PSBB) in the Reduced Intensity Status Epilepticus (RISE) model; type: in vivo
Procedure: Reduced Intensity Status Epilepticus (RISE) model
The method, which detects anti-epileptic activity follows that described by Modebaze et al., 2016 (PLoS one, 11(2):e0147265).
On Day 1, the rats were treated with lithium chloride (127 mg/kg, 5 mL/kg, s.c.). Approximately 24 hours after, on Day 2, a-methyl scopolamine (1 mg/kg, 1 mL/kg, s.c.) was administered to reduce peripheral manifestations of muscarinic cholinergic receptor activation. Thirty minutes later, a dose of pilocarpine chloride was injected (range from 25 mg/kg×1 to 40 mg/kg×5, i.e. 25-200 mg/kg, 1 mL/kg, s.c., reference P6503, Sigma). […]
Status epilepticus was determined when seizure severity was equal to a score of 5 on a Racine's scale. […]
Behavioural signs of status epilepticus were ceased within 30 minutes and animals were then closely monitored during subsequent recovery. They were visually monitored until ambulatory and able to consume water and moistened, powdered food. […]
The lithium-pilocarpine rats were assessed in the two following behavioural tests twice weekly over the next 10 weeks, starting two weeks after status epilepticus induction (on Day 15). […]
The PSBB score was analysed pre and post-treatment to assess firstly if the animals were evenly distributed in the 3 different treatment groups based on their epileptic phenotype and if it was affected differently by synthetic and botanical CBD. […]

[2] = system: Li-Pilo rats; experiment: Elevated plus-maze test in Li-Pilo rats; type: in vivo, rat; settings: 200 mg/kg, given orally for 6/7 weeks before the test
Procedure: (§1) From this point, the rats selected received vehicle during the first week of dosing then the test substance, CBD (SYN) or CBD (BOT 0.08%), at 200 mg/kg in drinking water until the end of the study, i.e. 7 weeks (1 week vehicle+6 weeks test substance). Dosing continued throughout the behavioural testing period (1 week). The drink was changed twice a week, until the end of the experiment.
The behavioural tests started 6 weeks after the beginning of dosing, i.e. between weeks 11 and 13. The rats were tested in sub-groups, depending on the beginning of the treatment. The behavioural tests included the elevated plus maze, social investigation, social recognition and accelerating rotarod tests (tests done in this order on the week of assessment).
The method, which detects anxiolytic activity, follows that described by Handley and Mithani (Naunyn. Schmied. Arch. Pharmacol., 327, 1-5, 1984). Rodents avoid open spaces (the open arms of an elevated plus-maze). Anxiolytics increase exploratory activity in the open arms, as indicated by increased time spent on the open arms and/or by increased % open-arm entries.
The maze consisted of 4 arms of equal length and width (50×10 cm) arranged in the form of a plus sign (+). Two opposite arms were enclosed by 40 cm high walls (closed arms). The 2 other arms had no walls (open arms). The maze was raised approximately 65 cm above the floor. A rat was placed in the center of the plus-maze and was left to explore for 5 minutes. The number of entries into the open and closed arms and the time spent on the open arms were recorded. The % of open arm entries (open arm entries/total arm entries×100) was calculated.
A test of normality (D'Agostino and Pearson) was done to check the distribution of the data before applying the appropriate statistical analysis. Data on the total number of entries and on the percent of entries in open arms was analyzed using One-Way analysis of variance (ANOVA) followed by Sidak's multiple comparisons test. Data on the time spent in open arms was analysed using Kruskal-Wallis Test followed by Dunn's multiple comparisons test.

[3] = system: Li-Pilo rats; experiment: Social investigation test in Li-Pilo rats; type: in vivo, rat; settings: 200 mg/kg, given orally for 6/7 weeks before the test
Procedure: as §1
The behavioural tests started 6 weeks after the beginning of dosing, i.e. between weeks 11 and 13. The rats were tested in sub-groups, depending on the beginning of the treatment. […]
Two unfamiliar rats (housed in 2 separate cages) from the same group were placed in an unfamiliar testing arena (80×80×40 cm) under dim light (<100 Lux). The behavior of the 2 rats was recorded for 10 minutes.
The time each rat spent investigating (sniffing, grooming, licking, closely following) the other rat was measured manually for 10 minutes. Locomotor activity (line crossing) was also recorded.
A test of normality (D'Agostino and Pearson) was done to check the distribution of the data before applying the appropriate statistical analysis. Data on the investigation duration was analyzed using Kruskal-Wallis Test followed by Dunn's multiple comparisons test. Data on the number of crossings was analysed using One-Way ANOVA followed by Sidak's multiple comparisons test.

[4] = General status / body weight of Li-Pilo rats during treatment; type: in vivo, rat
Procedure: as §1
The rats were weighed twice a week, at the same time that the vehicle/formulations were changed in the bottles. The glass bottles were also weighed twice a week for evaluating the volume drunk by the rat and adjusting the concentration during the experiment.

C=C(C)[C@@H]1CCC(C)=C[C@H]1c1c(O)cc(CCCCC)cc1O [Synthetic CBD, cannabidiol]
post-treatment PSBB score, as compared with control Li-Pilo rats (epileptic vehicle) ([1]; 200 mg/kg, given orally for 6/7 weeks before the test): did not significantly affect
post-treatment PSBB score (conclusion) ([1]; epileptic animals, comparator not stated): failed to lower the score
percent of entries in open arms, as compared with control Li-Pilo rats [2]: did not clearly affect
time spent in open arms, as compared with control Li-Pilo rats [2]: did not clearly affect
total number of entries, as compared with control Li-Pilo rats ([2]; 5 minutes): did not clearly affect
duration of investigation, as compared with control Li-Pilo rats [3]: did not significantly change
number of line crossings, as compared with control Li-Pilo rats [3]: did not significantly change
rats that lost weight on the 7 weeks of test ([4]; Phase 1): Three other rats lost weight
deaths in the treated group ([4]; Phase 1, nine rats in group): Two rats died
rats that lost weight on the 7 weeks of test ([4]; Phase 2): Four other rats lost weight
rats lost before the end of the experiment ([4]; Phase 2, thirteen rats in group): One rat was sacrificed for ethical reasons
